The source of these data is patent US7524871B2, “Thrombin inhibitors” (University of Ljubljana, Faculty of Pharmacy, priority 2001, dated 2009).

The structures appear in SMILES notation. Where two headings read alike, the source gives them in different places. Bounds are passed on as bounds.

The target of one assay is T1, Trypsin (bovine) (Bos taurus, UniProt P00760).
T1 construct: purchased Sigma
T1 sequence (P00760 24-246): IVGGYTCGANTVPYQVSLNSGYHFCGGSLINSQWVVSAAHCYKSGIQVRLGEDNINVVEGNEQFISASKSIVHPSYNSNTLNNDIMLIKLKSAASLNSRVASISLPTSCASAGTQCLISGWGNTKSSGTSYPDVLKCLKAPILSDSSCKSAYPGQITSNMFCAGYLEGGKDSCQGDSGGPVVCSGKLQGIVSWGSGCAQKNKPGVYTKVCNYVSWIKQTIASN
Kind of assay: Determination of selectivity of the inhibitor activity against thrombin with respect to trypsin inhibition (chromogenic substrate S-2222). The class given is biochemical. Particulars: for Ki: bovine trypsin 1 mU/mL, S-2222 100 and 50 μM, HBSA buffer pH 7.5; for Ki trypsin/ Ki thrombin: selectivity, ratio of Ki for trypsin to Ki for thrombin. As for the experimental part:
II. Determination of Selectivity of the Inhibitor Activity Against Thrombin with Respect to Trypsin Inhibition
The inhibitory activity against thrombin is determined as described above. Trypsin inhibition is measured in the same manner as in determination of inhibitory activity for thrombin except that a different chromogenic substrate is used. For both enzymes Ki is calculated. Selectivity of the inhibitor is expressed as a ratio of Ki for trypsin to Ki for thrombin.
Trypsin (bovine, 6000 BAEE Units/mg protein, Sigma): A stock solution of trypsin with the activity of 300 U/mL is prepared, pipetted into 0.2 mL aliquots and stored at −70° C. Immediately before use, the stock solution is thawed and a working solution of 4 mU/mL is prepared with HBSA buffer. The final trypsin activity in a microtiter plate is 1 mU/mL.
Before use the stock solution is thawed and 400 and 200 μM substrate solutions are prepared The final concentrations of the substrate in the reaction mixture are 100 and 50 μM.
(§1) HBSA buffer, pH 7.5: 10 mM Hepes buffer (HEPES, Sigma), 150 mM NaCl and 0.1% (w/v) bovine serum albumin (98% bovine serum albumin, Sigma) are dissolved in bidistilled water. The pH is adjusted with 0.1 M NaOH solution.
Working solutions (final concentrations in the range from 10 to 600 μM) are prepared with distilled water.
(§2) Each measurement is carried out in triplicate and the result is the averaged value of three measurements.
The procedure is the same as the procedure described for determination of the inhibitory activity against thrombin. The concentrations of the reagents described for determination of the inhibitory activity with respect to trypsin are used.
(§3) 4. Determination of the Inhibition Constant (Ki)
It is determined in the same manner as determination of Ki for thrombin.
5. Determination of the Selectivity
Ki for thrombin and Ki for trypsin are determined. The selectivity is defined as the ratio: […]

For another assay, the target named is T2, human thrombin (Homo sapiens, UniProt P00734).
T2 construct: Thrombin (human thrombin, 308 NIH units, Sigma); purchased Sigma
The experiment in a line: Enzyme assay for determination of the activity of thrombin inhibitors (chromogenic substrate S-2238). The assay is classed as biochemical. The procedure:
I. Enzyme Assay for Determination of the Activity of Thrombin Inhibitors
Thrombin cleaves amide bonds in a synthetic chromogenic substrate whereby […] coloured p-nitroaniline (p-NA) is released. The amount of p-NA produced is directly proportionate to the absorbance measured at a wavelength of 405 nm using a spectrophotometer. When thrombin inhibitor is added, the amidolytic activity of the enzyme decreases. The potency of the inhibitor is expressed by the inhibition constant (Ki).
The stock solution is pipetted into 0.5 mL aliquots and stored at −70° C. Immediately before use a working solution of thrombin of […] is prepared with HBSA buffer. The final concentration of thrombin in a microtiter plate is 0.5 NIH units/mL.
1 mM substrate solution is prepared, pipetted into 0.5 mL aliquots and stored at −20° C. Before use, 160 and 80 μM substrate solutions of the substrate are prepared with distilled water.
as §1
Working solutions (final concentrations within the range 10 to 100 μM) are prepared with distilled water.
Measurements are carried out in the microtiter plate. 50 μL HBSA buffer, 50 μL inhibitor solution of different concentrations (for control 50 μL HBSA buffer) and 50 μL of thrombin solution are pipetted into the wells of a microtiter plate. The plate is incubated at a temperature of 25° C. for 15 minutes. After incubation 50 μL of the chromogenic substrate is added and the microtiter plate is placed in the spectrophotometer (Tecan, Sunrise).
as §2, §3
Initial velocities of the reaction in the presence and absence of the inhibitor are measured. The change in the absorbance in the time unit (v) is calculated from the initial, linear part of the reaction. For competitive inhibitors it holds that
[formula] and it follows that
[formula] I=inhibitor concentration, S=substrate concentration, Km=Michaelis constant, vo=initial velocity of the reaction in the absence of inhibitor, vi=initial velocity of the reaction in the presence of inhibitor.
Measurements are carried out with two concentrations of the inhibitor and two concentrations of the substrate.

The mark [1] stands for this setting: human thrombin 0.5 NIH units/mL, S-2238 40 and 20 μM, HBSA buffer pH 7.5, 25° C., read-out: Ki thrombin.

With `Cc1ccc(NS(=O)(=O)Cc2ccccc2)c(=O)n1CC(=O)NCC1CCc2n[nH]cc2C1` (stereo not drawn), the results for the Ki on Trypsin (bovine) and at human thrombin (setting [1]) were 376 µM and 0.21 µM, respectively. Further, the “Ki trypsin/ Ki thrombin” value at Trypsin (bovine) is 1790.

`Cc1ccc(NS(=O)(=O)Cc2ccccc2)c(=O)n1CC(=O)NC1CCc2nc(N)sc2C1` (stereo not drawn): on Trypsin (bovine), the Ki (as a rule, the equilibrium dissociation constant of an inhibitor or competing ligand from its target) came out at 260 µM and the “Ki trypsin/ Ki thrombin” value was found to be 1625. The Ki at human thrombin (setting [1]) is 0.16 µM.

Take `Cc1ccc(NS(=O)(=O)Cc2ccc(F)cc2Cl)c(=O)n1CC(=O)NCC1CCc2n[nH]cc2C1` (stereo not drawn): the figures for the Ki on Trypsin (bovine) and at human thrombin (setting [1]) were more than 300 µM and 0.16 µM, respectively. For the same molecule, the “Ki trypsin/ Ki thrombin” value on Trypsin (bovine) is listed as more than 1875.

As to `Cc1ccc(NS(=O)(=O)Cc2ccc(F)cc2Cl)c(=O)n1CC(=O)NC1CCc2nc(N)sc2C1` (stereo not drawn), on Trypsin (bovine), the Ki is 193 µM and the “Ki trypsin/ Ki thrombin” value was found to be 1097. This molecule also came in with an inhibition constant Ki on human thrombin of 0.16 µM.

Take `Cc1ccc(NS(=O)(=O)Cc2cccc(C(F)(F)F)c2)c(=O)n1CC(=O)NC1CCc2nc(N)sc2C1` (stereo not drawn): the Ki at Trypsin (bovine) is more than 200 µM; at human thrombin (setting [1]), 0.65 µM. Also, the “Ki trypsin/ Ki thrombin” value on Trypsin (bovine) is more than 300.

For `Cc1ccc(NCCc2ccccc2)c(=O)n1CC(=O)NC1CCc2nc(N)sc2C1` (stereo not drawn), at Trypsin (bovine), the Ki worked out at 147 µM and the “Ki trypsin/ Ki thrombin” value came out at 213. Moreover, the Ki on human thrombin (setting [1]) was 0.69 µM.

For `Cc1ccc(NCCc2ccccc2)c(=O)n1CC(=O)NCC1CCc2n[nH]cc2C1` (stereo not drawn), on Trypsin (bovine), the Ki was 421 µM and the “Ki trypsin/ Ki thrombin” value amounted to 526. For the same molecule, the Ki on human thrombin (setting [1]) worked out at 0.82 µM.

Take `CCCCS(=O)(=O)Nc1ccc(C)n(CC(=O)NC2CCc3nc(N)sc3C2)c1=O` (stereo not drawn): on Trypsin (bovine), the affinity corresponds to a Ki of 50 µM and the “Ki trypsin/ Ki thrombin” value was 37. The Ki at human thrombin (setting [1]) turned out to be 1.3 µM.

Consider `Cc1ccc(NS(=O)(=O)Cc2ccccc2)c(=O)n1CC(=O)NC1CCc2n[nH]cc2C1` (stereo not drawn), for which the values for the Ki on Trypsin (bovine) and on human thrombin (setting [1]) were 438 µM and 4.7 µM, respectively. The “Ki trypsin/ Ki thrombin” value on Trypsin (bovine) stood at 93.
